US12295973B2 (Fred Hutchinson Cancer Center, priority 2017, dated 2025)

Test system: mice exposed to L-TBI
Test: Mouse survival after lethal total body irradiation (L-TBI, 840cGy)
Assay type: in vivo
Settings: MDV3100 24 h after L-TBI, alone
Source text: Description. Inhibition of sex steroids, which can be achieved in a reversible fashion pharmacologically, is a well-described strategy to promote lymphopoiesis in the BM and thymus^8,7,14,15. Although the most common method of sex steroid ablation clinically has been to use LHRH-agonists, it was described that an LHRH-Antagonist represents a more rational approach to promote immediate ablation of sex steroids for immune regeneration as it is far more rapid and abrogates the initial surge in sex steroids that LHRH-Agonist cause^16. Taken together with the impact of sex steroid inhibition on HSC function and the rapid regenerative effects of LHRH-Ant, it was hypothesized that LHRH-Ant could represent a rational non-cellular medical countermeasure for mitigating radiation injury and promoting hematopoietic regeneration when administered after hematopoietic insult. […] It was then tested if LHRH-Ant could mediate even greater mouse survival when administered multiple times.
Methods. […] B6.SJL-Ptprca Pepcb/BoyJ (CD45.1) male mice (The Jackson Laboratory) were used between 7 and 12 weeks of age for transplant. Mice were irradiated with a Gammacell 40 Irradiator (Cs-137), with an average dose rate of 95 cGy/min, in a plexiglass mouse pie cage. To assess mouse survival after radiation, mice were monitored for up to 60 days after TBI. To adjust for differences in weight, identical mice were purchased from Jackson and cages randomly distributed over different groups. All animal protocols were approved by the Memorial Sloan Kettering Cancer Center Institutional Animal Care and Use Committee.
Reagents: Degarelix (as acetate), a LHRH-Ant (Firmagon), was resuspended in sterile water for injection and administered S.C. to mice at a dose of 40 mg/kg. To evaluate the radiomitigative effect of LHRH-Ant on survival, mice were treated subcutaneously (S.C.) with a single injection of the LHRH-Ant or a saline control solution (PBS). Degarelix was purchased from the Memorial Sloan-Kettering Cancer Center Pharmacy. […] MDV3100 (selleckchem) was resuspended in a mixture of 45% PBS, 45% PEG and 10% DMSO and administered daily to mice by oral gavage at a dose of 10 mg/kg. 5-FU (InvivoGen) was administered to mice intraperitoneally (I.P.) at a dose of 150 mg/kg once every 7 days consecutively for 3 times as previously described^34,47,49.

## CNC(=O)c1ccc(N2C(=S)N(c3ccc(C#N)c(C(F)(F)F)c3)C(=O)C2(C)C)cc1F [MDV3100, enzalutamide]
  survival after L-TBI: did not mediate any survival benefit
